According to patent US20130064794A1, “Substituted Carbonyloxymethylphosphoramidate Compounds and Pharmaceutical Compositions for the Treatment of Viral Infections” (IDENIX PHARMACEUTICALS, INC., priority 2011, published 2013):
Like-named read-outs stand apart in the source and are kept apart here.

What was measured:
Type in all cases: cell-based
[1] = Cytotoxicity evaluation, CellTiter-Blue Cell Viability Assay; conditions: human, Zluc cells (Huh-7-derived cell line), read-out: HCV Replicon CC50
Experimental: (§1) For cytotoxicity evaluation, Zluc cells were treated with compound as described above, and cell viability was monitored using the CellTiter-Blue Cell Viability Assay (Promega) by adding 20 μL of the assay solution to each well. The plates were then incubated at 37° C./5% CO2 for at least 3 hours.

[2] = test system: HCV genotype 1b replicon; test: microbe, parasite or virus in culture; conditions: read-out: HCV Replicon EC50
Experimental: Huh-7-derived cell line (Zluc) that harbors an HCV genotype 1b replicon and a luciferase reporter gene was grown in Dulbecco's Modified Eagle Medium (DMEM) supplemented with 10% fetal bovine serum, 2 mM GlutaMAX, 1% MEM nonessential amino acids, 100 IU/mL penicillin, 100 μg/mL streptomycin, and 0.5 mg/mL Geneticin® (G418). For dose response testing the cells were seeded in 96-well plates at 7.5×10^3 cells per well in a volume of 50 μL, and incubated at 37° C./5% CO2. Drug solutions were made up freshly in Huh-7 media as 2× stocks. Ten additional 5-fold dilutions were prepared from these stocks in DMEM without G418. At least three hours after Zluc cells were seeded, drug treatment was initiated by adding 50 μL of drug dilutions to the plates in duplicate. […] Cells were then incubated at 37° C./5% CO2. Alternatively compounds were tested at two concentrations (10 nM and 100 nM). […] For this, media was removed from the plates via gentle tapping. Fifty microliters of ONE-glo luciferase assay reagent was added to each well. […] The EC50 values were calculated from dose response curves from the resulting best-fit equations determined by Microsoft Excel and XLfit 4.1 software.

[3] = test system: Zluc cells (Huh-7-derived cell line); test: Cytotoxicity evaluation, CellTiter-Blue Cell Viability Assay; conditions: read-out: HCV Replicon CC50
Experimental: as §1

[4] = Zluc cells, HCV genotype 1b replicon, luciferase, 72 hours of incubation

Row | Structure (SMILES) | CC50 [1] | EC50 ([2]; Hepatitis C virus, 72 h) | CC50 [3] | EC50 [2, 4]
1 | CCNC(=O)OCOP(=O)(N[C@H](C(=O)OCC)C(C)(C)C)OC[C@H]1O[C@@H](n2cnc3c(OCC)nc(N)nc32)[C@](C)(F)[C@@H]1O (single isomer, unassigned) [Compound 21] | > 50 µM | 1 to 10 µM | – | –
2 | COc1nc(N)nc2c1ncn2[C@@H]1O[C@H](COP(=O)(NCc2ccccc2)OC(OC(=O)OC(C)C)C(C)C)[C@@H](O)[C@@]1(C)O (stereo partly drawn) [Compound 6] | < 50 µM | < 0.1 µM | – | –
3 | CCOc1nc(N)nc2c1ncn2[C@@H]1O[C@H](COP(=O)(N[C@@H](C)C(=O)OC(C)C)OC(C)OC(=O)SCC)[C@@H](O)[C@@]1(C)F (stereo partly drawn) [Compound 24] | > 50 µM | < 0.1 µM | – | –
4 | COc1nc(N)nc2c1ncn2[C@@H]1O[C@H](COP(=O)(N[C@@H](CC(C)C)C(=O)OC(C)C)OCOC(=O)OC(C)C)[C@@H](O)[C@@]1(C)O (stereo partly drawn) [Compound 7] | > 50 µM | < 0.1 µM | – | –
5 | CCOC(=O)OC(C)OP(=O)(N[C@@H](C)C(=O)OC(C)C)OC[C@H]1O[C@@H](n2cnc3c(OC)nc(N)nc32)[C@](C)(F)[C@@H]1O (single isomer, unassigned) [Compound 17] | – | – | > 50 µM | < 0.1 µM
6 | CCNC(=O)OCOP(=O)(N[C@H](C(=O)OCC)C(C)(C)C)OC[C@H]1O[C@@H](n2cnc3c(OCC)nc(N)nc32)[C@](C)(F)[C@@H]1O (single isomer, unassigned) [Compound 22] | > 50 µM | 1 to 10 µM | – | –
7 | C[C@@]1(O)[C@H](O)[C@@H](COP(=O)(O)NCc2ccccc2)O[C@H]1n1cnc2c(=O)[nH]c(N)nc21 [Compound 1] | > 50 µM | 0.1 to 1 µM | – | –
8 | CC(C)(C)C(=O)OCOP(=O)(NCc1ccccc1)OC[C@H]1O[C@@H](n2cnc3c(=O)[nH]c(N)nc32)[C@](C)(O)[C@@H]1O (stereo partly drawn) [Compound 2] | > 50 µM | < 0.1 µM | – | –
9 | CCOC(=O)OC(C)OP(=O)(N[C@@H](C)C(=O)OC(C)C)OC[C@H]1O[C@@H](n2cnc3c(OC)nc(N)nc32)[C@](C)(F)[C@@H]1O (single isomer, unassigned) [Compound 16] | – | – | > 50 µM | < 0.1 µM
